Measured values: patent US12691101B2, “Compound and method for preventing or treating of respiratory diseases comprising the same as an active ingredient” (YONSEI UNIVERSITY, UNIVERSITY - INDUSTRY FOUNDATION (UIF), priority 2019, dated 2026)

Assays:
pendrin = target: T1, pendrin (Homo sapiens, UniProt O43511); assay: Pendrin-mediated Cl^−/HCO3^− exchange in IL-4-treated HNE and HBE cells; assay type: cell-based
T1 construct: endogenous in cells; host or cells: primary HNE and HBE cells, IL-4 treated
Protocol: Chinese hamster ovary (CHO)-K1 cells were maintained in a DMEM medium containing 10% fetal bovine serum (FBS), 100 units/ml penicillin and 100 100 μg/ml streptomycin. CHO-K1 cells were stably transfected with pcDNA3.1 encoding halide sensor YFP-H148Q/I152L/F46L and human wild-type (WT)-pendrin. For distribution of primary culture of human nasal cavity epithelium (HNE) cells, passage-2 cells were seeded into transwell-transparent culture inserts with a pore size of 0.45 μm (Costar Co., Cambridge, MA) at a density of 2×10^5 cells/cm^2. […]
For measurement of Cl^−/HCO3^− exchange activity, intracellular pH (pHi) was measured in WT-pendrin expressing CHO-K1 and HNE cells using pH sensor SNARF5-AM (Molecular Probes). The cells were treated with 5 μM SNARF5-AM for 30 minutes, and then were equipped in a perfusion chamber on the stage of a reverse fluorescence microscope (Nikon, Tokyo, Japan) equipped with a cooled charge-coupled device camera (Zyla sCMOS), image acquisition and analysis software (Meta Imaging Series 7.7). […] SNARF5 fluorescence was recorded at 515±10 nm of the excitation wavelength and 640±10 nm of the emission wavelength, and intracellular pH calibration was performed with a solution including 145 mM KCl, 10 mM HEPES and […] nigericin having a calibrated pH to 6.2-7.6.

tracheal smooth muscle = assay: Tracheal contraction in rat tracheal ring; settings: 30 μM after carbachol-induced contraction
Protocol: All experiments were performed using 4-week-old SD male rats. The experimental protocol was approved by the Animal Ethics Committee of Yonsei University. The rats were sacrificed and tracheal strips were separated. After the connective tissue was separated, the organ was cut into 3 mm long rings. The organ was mounted for tension recording under 1 g tension and equilibrated for 1 hour in an organ bath containing 25 mL of oxygenated physiological solution. The solution was gassed successively with 95% 02 and 5% CO2 at 37° C. After 1 hours of stabilization, 0.3 μM carbachol (CCh) was used to induce a sustained contraction reaction in the organ bath. Once the sustained tension was established, F56 (30 μM) and forskolin (10 μM) and IBMX (100 μM) were applied to the bath. The organ contraction was measured using FORT 10G converter (World Precision Instruments, Sarasota, FL, USA) and PowerLab 4/35 (AD Instruments, Castle Hill, Australia). Data were recorded and analyzed using Labchart Pro 7 (AD Instruments).

T1 sequence (O43511 whole entry): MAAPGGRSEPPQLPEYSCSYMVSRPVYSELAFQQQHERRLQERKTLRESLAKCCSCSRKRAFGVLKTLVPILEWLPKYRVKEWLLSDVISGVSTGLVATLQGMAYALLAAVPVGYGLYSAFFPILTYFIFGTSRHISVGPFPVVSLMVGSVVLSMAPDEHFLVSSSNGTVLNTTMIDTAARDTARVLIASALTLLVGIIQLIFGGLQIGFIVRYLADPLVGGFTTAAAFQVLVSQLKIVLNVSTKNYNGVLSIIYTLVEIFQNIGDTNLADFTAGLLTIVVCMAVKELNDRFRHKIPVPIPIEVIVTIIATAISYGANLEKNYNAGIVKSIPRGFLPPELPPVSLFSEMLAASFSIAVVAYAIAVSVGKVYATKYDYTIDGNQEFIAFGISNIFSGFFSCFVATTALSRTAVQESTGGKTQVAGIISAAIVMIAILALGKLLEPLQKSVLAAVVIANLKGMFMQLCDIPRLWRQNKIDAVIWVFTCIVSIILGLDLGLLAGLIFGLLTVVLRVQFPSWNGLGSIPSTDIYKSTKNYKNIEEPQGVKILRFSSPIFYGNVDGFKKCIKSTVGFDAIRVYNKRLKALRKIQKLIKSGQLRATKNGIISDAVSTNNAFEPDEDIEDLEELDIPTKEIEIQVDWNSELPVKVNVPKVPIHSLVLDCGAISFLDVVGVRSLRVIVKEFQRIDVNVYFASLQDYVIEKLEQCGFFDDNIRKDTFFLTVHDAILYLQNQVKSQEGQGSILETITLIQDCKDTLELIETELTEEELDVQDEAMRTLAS

inhibition of pendrin-mediated Cl^−/HCO3^− exchange activity (pendrin; IL-4-treated HNE and HBE cells, acute treatment): potentially inhibited | IL-4-induced upregulation of the Cl^−/HCO3^− exchange activity (pendrin; long-term treatment, HNE cells): strongly reduced | effect on tracheal smooth muscle (tracheal smooth muscle): did not affect
SMILES: CC(C)(C)c1ccc(C2=NC(=Cc3cccs3)C(=O)O2)cc1 [F56, 2-(4-(tert-butyl)phenyl)-4-(thiophen-2-ylmethylene)oxazol-5(4H)-one]
